Source: patent US10597388B2, “Pyridazinone herbicides” (FMC CORPORATION, priority 2014, dated 2020)

Assays:
Assay in all cases: Test E greenhouse herbicide test, pre- and postemergence
Type in all cases: in vivo
[1] = test system: arrowleaf sida (Sida rhombifolia)
Method in brief: (§1)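 Scores (0–100, visual, vs controls) reflect greenhouse growth of 14 to 21 d after treatment. Application was pre-emergence to silt loam or post-emergence at the 1- to 4-leaf stage.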

[2] = test system: barnyardgrass (Echinochloa crus-galli)
Method in brief: as §1

corn (Zea mays) = test system: corn (Zea mays)
Method in brief: as §1

[3] = test system: crabgrass, large (large crabgrass, Digitaria sanguinalis); details: Preemergence
Method in brief: as §1

[4] = test system: dayflower (Virginia (VA) dayflower, Commelina virginica)
Method in brief: as §1

[5] = test system: foxtail, giant (giant foxtail, Setaria faberii); details: Preemergence
Method in brief: as §1

[6] = test system: goosegrass (Eleusine indica); details: Preemergence
Method in brief: as §1

[7] = test system: horseweed (Conyza canadensis)
Method in brief: as §1

[8] = test system: lambsquarters (Chenopodium album); details: Preemergence
Method in brief: as §1

[9] = test system: momingglory (Ipomoea coccinea); details: Preemergence
Method in brief: as §1

[10] = test system: nightshade (eastern black nightshade, Solanum ptycanthum); details: Preemergence
Method in brief: as §1

[11] = test system: panicum, fall (fall panicum, Panicum dichotomiflorum)
Method in brief: as §1

[12] = test system: pigweed, palmer (palmer pigweed, Amaranthus palmeri)
Method in brief: as §1

[13] = test system: ragweed (common ragweed, Ambrosia elatior)
Method in brief: as §1

[14] = test system: sandbur (southem sandbur, Cenchrus echinatus)
Method in brief: as §1

[15] = test system: surinam grass (Brachiaria decumbens); details: Preemergence
Method in brief: as §1

[16] = test system: velvetleaf (Abutilon theophrasti); details: Preemergence
Method in brief: as §1

[17] = 62 g ai/ha, Postemergence, scale 0 to 100 (0 no effect, 100 complete control)
[18] = 62 g ai/ha, Preemergence, scale 0 to 100 (0 no effect, 100 complete control)
[19] = 125 g ai/ha, Postemergence, scale 0 to 100 (0 no effect, 100 complete control)
[20] = 125 g ai/ha, Preemergence, scale 0 to 100 (0 no effect, 100 complete control)
[21] = 250 g ai/ha, Postemergence, scale 0 to 100 (0 no effect, 100 complete control)
[22] = Postemergence, 31 g ai/ha, visual, scale 0 no effect to 100 complete control
[23] = Preemergence, 31 g ai/ha, scale 0 to 100, 0 no effect, 100 complete control
[24] = Preemergence, 250 g ai/ha, visual, scale 0 no effect to 100 complete control
[25] = 62 g ai/ha, scale 0 to 100 (0 no effect, 100 complete control)
[26] = 125 g ai/ha, scale 0 to 100 (0 no effect, 100 complete control)
[27] = 31 g ai/ha, scale 0 to 100, 0 no effect, 100 complete control
[28] = 250 g ai/ha, visual, scale 0 no effect to 100 complete control

SMILES: CC(=O)Oc1c(C)nn(C)c(=O)c1-c1c(C)cc(C)c2ccccc12 [Compound 153]
- Plant response rating, Arrowleaf Sida [1, 17]: 50
- Plant response rating, Arrowleaf Sida [1, 18]: 70
- Plant response rating, Arrowleaf Sida [1, 19]: 40
- Plant response rating, Arrowleaf Sida [1, 20]: 60
- Plant response rating, Arrowleaf Sida [1, 21]: 40
- Plant response rating, Arrowleaf Sida [1, 22]: 40
- Plant response rating, Arrowleaf Sida [1, 23]: 50
- Plant response rating, Arrowleaf Sida [1, 24]: 75
- Plant response rating, Barnyardgrass [2, 17]: 40
- Plant response rating, Barnyardgrass [2, 18]: 50
- Plant response rating, Barnyardgrass [2, 19]: 50
- Plant response rating, Barnyardgrass [2, 20]: 70
- Plant response rating, Barnyardgrass [2, 21]: 80
- Plant response rating, Barnyardgrass [2, 22]: 25
- Plant response rating, Barnyardgrass [2, 23]: 20
- Plant response rating, Barnyardgrass [2, 24]: 90
- Plant response rating, Corn (corn (Zea mays); [17]): 0
- Plant response rating, Corn (corn (Zea mays); [18]): 0
- Plant response rating, Corn (corn (Zea mays); [19]): 0
- Plant response rating, Corn (corn (Zea mays); [20]): 10
- Plant response rating, Corn (corn (Zea mays); [21]): 0
- Plant response rating, Corn (corn (Zea mays); [22]): 0
- Plant response rating, Corn (corn (Zea mays); [23]): 0
- Plant response rating, Corn (corn (Zea mays); [24]): 20
- Plant response rating, Crabgrass, Large [3, 25]: 70
- Plant response rating, Crabgrass, Large [3, 26]: 75
- Plant response rating, Crabgrass, Large [3, 27]: 70
- Plant response rating, Crabgrass, Large [3, 28]: 80
- Plant response rating, Dayflower, VA [4, 17]: 90
- Plant response rating, Dayflower, VA [4, 18]: 85
- Plant response rating, Dayflower, VA [4, 19]: 90
- Plant response rating, Dayflower, VA [4, 20]: 90
- Plant response rating, Dayflower, VA [4, 21]: 95
- Plant response rating, Dayflower, VA [4, 22]: 85
- Plant response rating, Dayflower, VA [4, 23]: 80
- Plant response rating, Dayflower, VA [4, 24]: 90
- Plant response rating, Foxtail, Giant [5, 25]: 95
- Plant response rating, Foxtail, Giant [5, 26]: 95
- Plant response rating, Foxtail, Giant [5, 27]: 75
- Plant response rating, Foxtail, Giant [5, 28]: 100
- Plant response rating, Goosegrass [6, 25]: 40
- Plant response rating, Goosegrass [6, 26]: 60
- Plant response rating, Goosegrass [6, 27]: 40
- Plant response rating, Goosegrass [6, 28]: 75
- Plant response rating, Horseweed [7, 17]: 80
- Plant response rating, Horseweed [7, 18]: 100
- Plant response rating, Horseweed [7, 19]: 85
- Plant response rating, Horseweed [7, 20]: 100
- Plant response rating, Horseweed [7, 21]: 85
- Plant response rating, Horseweed [7, 22]: 85
- Plant response rating, Horseweed [7, 23]: 90
- Plant response rating, Horseweed [7, 24]: 100
- Plant response rating, Lambsquarters [8, 26]: 100
- Plant response rating, Lambsquarters [8, 27]: 100
- Plant response rating, Lambsquarters [8, 28]: 100
- Plant response rating, Morningglory [9, 26]: 90
- Plant response rating, Morningglory [9, 27]: 85
- Plant response rating, Morningglory [9, 28]: 100
- Plant response rating, Nightshade [10, 26]: 95
- Plant response rating, Nightshade [10, 27]: 70
- Plant response rating, Nightshade [10, 28]: 100
- Plant response rating, Panicum, Fall [11, 17]: 90
- Plant response rating, Panicum, Fall [11, 19]: 90
- Plant response rating, Panicum, Fall [11, 20]: 100
- Plant response rating, Panicum, Fall [11, 21]: 90
- Plant response rating, Panicum, Fall [11, 22]: 85
- Plant response rating, Panicum, Fall [11, 23]: 100
- Plant response rating, Panicum, Fall [11, 24]: 100
- Plant response rating, Pigweed, Palmer [12, 17]: 20
- Plant response rating, Pigweed, Palmer [12, 19]: 30
- Plant response rating, Pigweed, Palmer [12, 20]: 60
- Plant response rating, Pigweed, Palmer [12, 21]: 40
- Plant response rating, Pigweed, Palmer [12, 22]: 20
- Plant response rating, Pigweed, Palmer [12, 23]: 50
- Plant response rating, Pigweed, Palmer [12, 24]: 95
- Plant response rating, Ragweed [13, 17]: 70
- Plant response rating, Ragweed [13, 19]: 80
- Plant response rating, Ragweed [13, 20]: 95
- Plant response rating, Ragweed [13, 21]: 90
- Plant response rating, Ragweed [13, 22]: 75
- Plant response rating, Ragweed [13, 23]: 100
- Plant response rating, Ragweed [13, 24]: 100
- Plant response rating, Sandbur [14, 19]: 60
- Plant response rating, Sandbur [14, 20]: 85
- Plant response rating, Sandbur [14, 21]: 70
- Plant response rating, Sandbur [14, 22]: 50
- Plant response rating, Sandbur [14, 23]: 80
- Plant response rating, Sandbur [14, 24]: 90
- Plant response rating, Surinam Grass [15, 26]: 90
- Plant response rating, Surinam Grass [15, 27]: 50
- Plant response rating, Surinam Grass [15, 28]: 100
- Plant response rating, Velvetleaf [16, 26]: 90
- Plant response rating, Velvetleaf [16, 27]: 85
- Plant response rating, Velvetleaf [16, 28]: 100
